SMILES strings stand for the structures.

PARP7, sequence (Q7Z3E1 whole entry): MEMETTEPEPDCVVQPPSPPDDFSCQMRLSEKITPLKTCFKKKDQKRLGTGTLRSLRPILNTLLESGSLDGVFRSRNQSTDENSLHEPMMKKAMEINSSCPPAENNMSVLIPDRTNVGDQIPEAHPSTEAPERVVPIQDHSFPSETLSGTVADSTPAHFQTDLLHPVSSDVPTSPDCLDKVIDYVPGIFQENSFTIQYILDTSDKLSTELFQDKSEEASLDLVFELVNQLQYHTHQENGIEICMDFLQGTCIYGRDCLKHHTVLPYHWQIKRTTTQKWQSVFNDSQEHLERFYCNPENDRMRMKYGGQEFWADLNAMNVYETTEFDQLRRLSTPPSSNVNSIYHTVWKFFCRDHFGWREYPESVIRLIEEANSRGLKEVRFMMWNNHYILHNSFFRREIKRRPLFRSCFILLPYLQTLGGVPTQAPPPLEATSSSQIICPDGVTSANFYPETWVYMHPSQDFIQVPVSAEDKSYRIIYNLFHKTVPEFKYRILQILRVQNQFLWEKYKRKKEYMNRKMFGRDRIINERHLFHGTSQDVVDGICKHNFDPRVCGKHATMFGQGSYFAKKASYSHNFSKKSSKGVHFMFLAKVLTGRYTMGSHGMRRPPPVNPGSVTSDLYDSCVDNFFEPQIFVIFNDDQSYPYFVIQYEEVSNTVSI

The target of the assay is PARP7 (Homo sapiens (Human), UniProt Q7Z3E1). As to the kind of experiment: In vitro enzymology experiment of PARP7 (enzymatic inhibition). In kind it is biochemical. The method in brief:
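Histone-coated plate ADP-ribosylation format: compound preincubated 10 min at room temperature with preincubated (25 °C, 10 min) enzyme mixture; incorporated biotin detected by streptavidin-HRP and QuantaRed fluorescence (Ex550/Em620).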
Consider `O=C(OCCc1c[nH]c(=O)c(C(F)(F)F)c1)N1CCN(c2ncc(C3CCCC3)cn2)CC1` [Example 119, 2-(6-Oxo-5-(trifluoromethyl)-1,6-dihydropyridin-3-yl)ethyl 4-(5-cyclopentylpyrimidin-2-yl)piperazine-1-carboxylate], for which the IC50 (as a rule, the point on the concentration scale where inhibition reaches its midpoint) was 0.24 nM. Compound `CC(=O)c1cnc(N2CCN(C(=O)O[C@@H](C)Cc3c[nH]c(=O)c(C(F)(F)F)c3)CC2)nc1` [Example 120, (S)-1-(6-Oxo-5-(trifluoromethyl)-1,6-dihydropyridin-3-yl)propan-2-yl 4-(5-acetylpyrimidin-2-yl)piperazine-1-carboxylate] had an IC50 of 0.66 nM. Turning to `CC[C@H]1CN(c2ncc(C(F)(F)F)cn2)CCN1C(=O)OCCc1c[nH]c(=O)c(C(F)(F)F)c1` [Example 121, 2-(6-Oxo-5-(trifluoromethyl)-1,6-dihydropyridin-3-yl)ethyl (S)-2-ethyl-4-(5-(trifluoromethyl)pyrimidin-2-yl)piperazine-1-carboxylate], it took 0.54 nM to reach half-maximal inhibition (IC50). The same measure for `CC[C@@H]1CN(c2ncc(C(F)(F)F)cn2)CCN1C(=O)OCCc1c[nH]c(=O)c(C(F)(F)F)c1` [Example 122, 2-(6-Oxo-5-(trifluoromethyl)-1,6-dihydropyridin-3-yl)ethyl (R)-2-ethyl-4-(5-(trifluoromethyl)pyrimidin-2-yl)piperazine-1-carboxylate]: 0.69 nM. The same measure for `CC[C@@H]1CN(C(=O)OCCc2c[nH]c(=O)c(C(F)(F)F)c2)CCN1c1ncc(C(F)(F)F)cn1` [Example 123, 2-(6-Oxo-5-(trifluoromethyl)-1,6-dihydropyridin-3-yl)ethyl (R)-3-ethyl-4-(5-(trifluoromethyl)pyrimidin-2-yl)piperazine-1-carboxylate]: 0.87 nM. Compound `CC[C@H]1CN(C(=O)OCCc2c[nH]c(=O)c(C(F)(F)F)c2)CCN1c1ncc(C(F)(F)F)cn1` [Example 124, 2-(6-Oxo-5-(trifluoromethyl)-1,6-dihydropyridin-3-yl)ethyl (S)-3-ethyl-4-(5-(trifluoromethyl)pyrimidin-2-yl)piperazine-1-carboxylate] gave an IC50 of 0.48 nM. Then `O=C(OCCc1c[nH]c(=O)c(C(F)(F)F)c1)N1CC2CCC(C1)N2c1ncc(C(F)(F)F)cn1` [Example 125, 2-(6-Oxo-5-(trifluoromethyl)-1,6-dihydropyridin-3-yl)ethyl 8-(5-(trifluoromethyl)pyrimidin-2-yl)-3,8-diazabicyclo[3.2.1]octane-3-carboxylate], with 0.71 nM; and `O=C(OCCc1c[nH]c(=O)c(C(F)(F)F)c1)N1C2CCC1CN(c1ncc(C(F)(F)F)cn1)C2` [Example 126, 2-(6-Oxo-5-(trifluoromethyl)-1,6-dihydropyridin-3-yl)ethyl 3-(5-(trifluoromethyl)pyrimidin-2-yl)-3,8-diazabicyclo[3.2.1]octane-8-carboxylate], with 1 nM.

In turn, `O=C(OCCc1c[nH]c(=O)c(C(F)(F)F)c1)N1CCN(c2cnc(C(F)(F)F)cn2)CC1` [Example 127, 2-(6-Oxo-5-(trifluoromethyl)-1,6-dihydropyridin-3-yl)ethyl 4-(5-(trifluoromethyl)pyrazin-2-yl)piperazine-1-carboxylate] registered an IC50 of 0.49 nM. This IC50 is about 2-fold lower than that of the compound before. Take `N#CC[C@@H]1CN(c2ncc(C(F)(F)F)cn2)CCN1C(=O)OCCc1c[nH]c(=O)c(C(F)(F)F)c1` [Example 128, 2-(6-Oxo-5-(trifluoromethyl)-1,6-dihydropyridin-3-yl)ethyl (R)-2-(cyanomethyl)-4-(5-(trifluoromethyl)pyrimidin-2-yl)piperazine-1-carboxylate]: the midpoint of inhibition, the IC50, lay at 0.81 nM. Then `O=C(OCCc1c[nH]c(=O)c(C(F)(F)F)c1)N1CCN(c2ncc(C(F)(F)F)cc2F)CC1` [Example 130, 2-(6-Oxo-5-(trifluoromethyl)-1,6-dihydropyridin-3-yl)ethyl 4-(3-fluoro-5-(trifluoromethyl)pyridin-2-yl)piperazine-1-carboxylate], with 0.77 nM; and `Cc1cc(C(F)(F)F)cnc1N1CCN(C(=O)OCCc2c[nH]c(=O)c(C(F)(F)F)c2)CC1` [Example 132, 2-(6-Oxo-5-(trifluoromethyl)-1,6-dihydropyridin-3-yl)ethyl 4-(3-methyl-5-(trifluoromethyl)pyridin-2-yl)piperazine-1-carboxylate], with 0.78 nM. Compound `Cc1[nH]c(=O)c(C(F)(F)F)cc1C[C@H](C)OC(=O)N1CCN(c2ncc(C(F)(F)F)cn2)CC1` [Example 133, (S)-1-(2-Methyl-6-oxo-5-(trifluoromethyl)-1,6-dihydropyridin-3-yl)propan-2-yl 4-(5-(trifluoromethyl)pyrimidin-2-yl)piperazine-1-carboxylate] gave an IC50 of 0.76 nM. This IC50 and that of the compound before are within 1.5-fold of each other. With `O=C(Oc1ccccc1-c1c[nH]c(=O)c(C(F)(F)F)c1)N1CCN(c2ncc(C(F)(F)F)cn2)CC1` [Example 134, 2-(6-Oxo-5-(trifluoromethyl)-1,6-dihydropyridin-3-yl)phenyl 4-(5-(trifluoromethyl)pyrimidin-2-yl)piperazine-1-carboxylate], the IC50 came to 1.92 nM.

In turn, `Cc1ccc(OC(=O)N2CCN(c3ncc(C(F)(F)F)cn3)CC2)cc1-c1c[nH]c(=O)c(C(F)(F)F)c1` [Example 135, 4-Methyl-3-(6-oxo-5-(trifluoromethyl)-1,6-dihydropyridin-3-yl)phenyl 4-(5-(trifluoromethyl)pyrimidin-2-yl)piperazine-1-carboxylate] came in with an IC50 of 2.78 nM. Then `O=C(Oc1cncc(-c2c[nH]c(=O)c(C(F)(F)F)c2)c1)N1CCN(c2ncc(C(F)(F)F)cn2)CC1` [Example 136, 6′-Oxo-5′-(trifluoromethyl)-1′,6′-dihydro-[3,3′-bipyridin]-5-yl 4-(5-(trifluoromethyl)pyrimidin-2-yl)piperazine-1-carboxylate], with 3.53 nM. The same measure for `O=C(Oc1ccnc(-c2c[nH]c(=O)c(C(F)(F)F)c2)c1)N1CCN(c2ncc(C(F)(F)F)cn2)CC1` [Example 137, 6′-Oxo-5′-(trifluoromethyl)-1′,6′-dihydro-[2,3′-bipyridin]-4-yl 4-(5-(trifluoromethyl)pyrimidin-2-yl)piperazine-1-carboxylate]: 2.4 nM; for `Cc1cc(OC(=O)N2CCN(c3ncc(C(F)(F)F)cn3)CC2)cc(-c2c[nH]c(=O)c(C(F)(F)F)c2)c1` [Example 138, 3-Methyl-5-(6-oxo-5-(trifluoromethyl)-1,6-dihydropyridin-3-yl)phenyl 4-(5-(trifluoromethyl)pyrimidin-2-yl)piperazine-1-carboxylate]: 1.8 nM; for `O=C(Oc1ccc(F)c(-c2c[nH]c(=O)c(C(F)(F)F)c2)c1)N1CCN(c2ncc(C(F)(F)F)cn2)CC1` [Example 139, 4-Fluoro-3-(6-oxo-5-(trifluoromethyl)-1,6-dihydropyridin-3-yl)phenyl 4-(5-(trifluoromethyl)pyrimidin-2-yl)piperazine-1-carboxylate]: 0.9 nM. Then `C[C@@H]1CN(c2ncc(C(F)(F)F)cn2)CCN1C(=O)Oc1cccc(-c2c[nH]c(=O)c(C(F)(F)F)c2)c1` [Example 140, 3-(6-Oxo-5-(trifluoromethyl)-1,6-dihydropyridin-3-yl)phenyl (R)-2-methyl-4-(5-(trifluoromethyl)pyrimidin-2-yl)piperazine-1-carboxylate], with 2.86 nM; and `N#Cc1ccc(N2CCN(C(=O)OCCc3c[nH]c(=O)c(C(F)(F)F)c3)CC2)nc1` [Example 144, 2-(6-Oxo-5-(trifluoromethyl)-1,6-dihydropyridin-3-yl)ethyl 4-(5-cyanopyridin-2-yl)piperazine-1-carboxylate], with 1.5 nM. Turning to `C[C@H]1CN(c2ncc(C(F)(F)F)cn2)C[C@H](C)N1C(=O)OCCc1c[nH]c(=O)c(C(F)(F)F)c1` [Example 145, 2-(6-Oxo-5-(trifluoromethyl)-1,6-dihydropyridin-3-yl)ethyl (2S,6S)-2,6-dimethyl-4-(5-(trifluoromethyl)pyrimidin-2-yl)piperazine-1-carboxylate], the IC50 turned out to be 2.3 nM. Then `C[C@@H]1CN(c2ncc(C(F)(F)F)cn2)C[C@@H](C)N1C(=O)OCCc1c[nH]c(=O)c(C(F)(F)F)c1` [Example 148, 2-(6-Oxo-5-(trifluoromethyl)-1,6-dihydropyridin-3-yl)ethyl (2R,6R)-2,6-dimethyl-4-(5-(trifluoromethyl)pyrimidin-2-yl)piperazine-1-carboxylate], with 0.77 nM; and `C[C@@H]1CN(C(=O)OCCc2c[nH]c(=O)c(C(F)(F)F)c2)C[C@@H](C)N1c1ncc(C(F)(F)F)cn1` [Example 149, 2-(6-Oxo-5-(trifluoromethyl)-1,6-dihydropyridin-3-yl)ethyl (3R,5R)-3,5-dimethyl-4-(5-(trifluoromethyl)pyrimidin-2-yl)piperazine-1-carboxylate], with 0.64 nM. Take `C[C@@H]1CN(c2ncc(C(F)(F)F)cn2)C[C@H](C)N1C(=O)OCCc1c[nH]c(=O)c(C(F)(F)F)c1` [Example 150, 2-(6-Oxo-5-(trifluoromethyl)-1,6-dihydropyridin-3-yl)ethyl (2S,6R)-2,6-dimethyl-4-(5-(trifluoromethyl)pyrimidin-2-yl)piperazine-1-carboxylate]: the IC50 came to 0.71 nM. Then `C[C@@H]1CN(c2ncc(C3CC3)cn2)C[C@H](C)N1C(=O)OCCc1c[nH]c(=O)c(C(F)(F)F)c1` [Example 151, 2-(6-Oxo-5-(trifluoromethyl)-1,6-dihydropyridin-3-yl)ethyl (2R,6S)-4-(5-cyclopropylpyrimidin-2-yl)-2,6-dimethylpiperazine-1-carboxylate], with 1.1 nM; and `O=C(OCCc1c[nH]c(=O)c(C(F)(F)F)c1)N1CCN(c2ncc(C3CC3)cn2)CC1` [Example 152, 2-(6-Oxo-5-(trifluoromethyl)-1,6-dihydropyridin-3-yl)ethyl 4-(5-cyclopropylpyrimidin-2-yl)piperazine-1-carboxylate], with 0.76 nM. The same measure for `C[C@@H]1CN(C(=O)OCCc2c[nH]c(=O)c(C(F)(F)F)c2)C[C@H](C)N1c1ncc(C(F)(F)F)cn1` [Example 153, 2-(6-Oxo-5-(trifluoromethyl)-1,6-dihydropyridin-3-yl)ethyl (3R,5S)-3,5-dimethyl-4-(5-(trifluoromethyl)pyrimidin-2-yl)piperazine-1-carboxylate]: 0.65 nM.

For the origin of these results see patent US20240351997A1, “NOVEL PARP7 INHIBITOR AND USE THEREOF” (SHANGHAI QILU PHARMACEUTICAL RESEARCH AND DEVELOPMENT …, priority 2021, published 2024).
